Experiment [1] deals with Escherichia coli strain ATCC25922. Briefly: Antimicrobial activity, MIC by broth microdilution. The note with it: ATCC25922, 18 h, cation-adjusted Mueller-Hinton broth, about 5×10^5 CFU/mL, 35° C., about 18 hours, read-out: MIC Escherichia coli ATCC25922. The experiment is classed as cell-based. From the text:
(§1) Test Example 4 Evaluation of the Antimicrobial Activity
(§2) For minimum inhibitory concentration (MIC) measurement, the following broth microdilution method was applied as adapted from the standard procedure recommended by the CLSI (Clinical and Laboratory Standards Institute).
(§3) The bacteria used were Pseudomonas aeruginosa strain ATCC27853, Escherichia coli strain ATCC25922, and Klebsiella pneumoniae strain ATCC13883. After culture overnight on a heart infusion agar medium, the cells of a test bacterium were scraped off, and a bacterial solution suspended to have a turbidity of level 0.5 on the McFarland scale was diluted and used as an inoculum solution. The inoculum solution was inoculated in a cation-adjusted Mueller-Hinton broth medium containing a test compound so that the final inoculation concentration was about 5×10^5 CFU/mL, and cultured at 35° C. for about 18 hours. A minimum drug concentration at which no cell growth was visible to the naked eye was designated as MIC. […] In the table, ND represents the case where suppression of the cell growth in a drug concentration-dependent manner was not observed (Not Determined), and NT represents that no test was conducted (Not Tested).

Experiment [2] relates to Klebsiella pneumoniae strain ATCC13883. The experiment in a line: Antimicrobial activity, MIC by broth microdilution. The experiment is classed as cell-based. The settings on record: ATCC13883, cation-adjusted Mueller-Hinton broth, about 5×10^5 CFU/mL, 35° C., about 18 hours, read-out: MIC Klebsiella pneumoniae ATCC13883.
Excerpt: as §1, §2, §3

The test system of experiment [3] is Pseudomonas aeruginosa strain ATCC27853. The experiment in a line: Antimicrobial activity, MIC by broth microdilution. The experiment is classed as cell-based. The settings on record: ATCC27853, 18 h, cation-adjusted Mueller-Hinton broth, about 5×10^5 CFU/mL, 35° C., about 18 hours, read-out: MIC Pseudomonas aeruginosa ATCC27853.
Excerpt: as §1, §2, §3

The target in experiment [4] is T1, Escherichia coli LpxC enzyme (Escherichia coli, UniProt P0A725).
T1 construct: made in house; host or cells: Escherichia coli
T1 sequence (P0A725 1-305): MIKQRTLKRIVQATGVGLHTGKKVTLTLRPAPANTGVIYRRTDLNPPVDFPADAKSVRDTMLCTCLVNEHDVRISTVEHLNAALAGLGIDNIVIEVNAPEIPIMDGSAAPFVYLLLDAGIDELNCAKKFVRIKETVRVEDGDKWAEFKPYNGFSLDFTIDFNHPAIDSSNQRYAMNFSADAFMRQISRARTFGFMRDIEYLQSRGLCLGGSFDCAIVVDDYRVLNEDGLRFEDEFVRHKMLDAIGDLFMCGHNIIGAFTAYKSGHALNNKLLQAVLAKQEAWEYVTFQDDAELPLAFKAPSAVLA
The experiment in a line: Inhibitory activity on Escherichia coli LpxC enzyme (fluorescamine method). The experiment is classed as biochemical. The method, then:
To assay the activity of Escherichia coli LpxC enzyme, LpxC was reacted with its substrate, UDP-3-O-(R-3-hydroxymyristoyl)-N-acetylglucosamine, and the amount of the reaction product was quantified by the amino groups present in the product
The reaction was terminated by the addition of 1.0 mg/mL-fluorescamine dissolved in a solvent obtained by mixing an equal amount of acetonitrile and dimethylformamide with the reaction mixture, and then, a 0.2 mol/L-sodium phosphate buffer solution (pH 8.0) was added thereto, and the amount of the reaction product was detected at an excitation wavelength/fluorescence wavelength=390 nm/495 nm. An inhibition curve was obtained by performing the aforementioned reaction in the presence of various concentrations of test compounds.

Setting [5] is: fluorescamine detection, 3.1 nmol/L enzyme, 20 μmol/L substrate, pH 6.5, 120 min, read-out: IC50 (inhibitory activity on Escherichia coli LpxC enzyme, Fluoresamine method).

Molecules are shown by their SMILES. Converted amounts (≈) assume the structure as drawn. Read-outs that look alike come from different tables or passages of the source. Bounds are passed on as bounds.

For the compound `CC(=O)N1CC(C#Cc2ccc(-c3cc(Cn4ccnc4[C@H](C)O)no3)cc2)C1` [Compound 69, 1-[3-({4-[3-({2-[(1S)-1-hydroxyethyl]-1H-imidazol-1-yl}methyl)-1,2-oxazol-5-yl]phenyl}ethynyl)azetidin-1-yl]ethan-1-one], the minimal inhibitory concentration (MIC) in experiment [1] was determined as 4 mg/L (≈ 10.2 µM); in experiment [2] it was 8 mg/L (≈ 20.5 µM); in experiment [3], 64 mg/L (≈ 164 µM). In experiment [4] (setting [5]), the IC50 turned out to be 0.0542 µM.

Turning to `CNC(=O)C(=O)N1C[C@@H]2[C@@H](C#Cc3ccc(-c4cc(Cn5ccnc5[C@H](C)O)no4)cc3)[C@@H]2C1` [Compound 105, 2-[(1R,5S,6s)-6-({4-[3-({2-[(1S)-1-Hydroxyethyl]-1H-imidazol-1-yl}methyl)-1,2-oxazol-5-yl]phenyl}ethynyl)-3-azabicyclo[3.1.0]hexan-3-yl]-N-methyl-2-oxoacetamide], the MIC in experiment [1] was 1 mg/L (≈ 2.18 µM); in experiment [2], 1 mg/L (≈ 2.18 µM); in experiment [3] it was 16 mg/L (≈ 34.8 µM). The IC50 in experiment [4] (setting [5]) is 0.0638 µM.

As to `C[C@H](O)c1nccn1Cc1cc(-c2ccc(C#CC3CC3)cc2)on1` [Compound 26, (1S)-1-[1-({5-[4-(Cyclopropylethynyl)phenyl]-1,2-oxazol-3-yl}methyl)-1H-imidazol-2-yl]ethan-1-ol], the MIC in experiment [1] is 0.25 mg/L (≈ 0.75 µM); in experiment [2] it was 0.25 mg/L (≈ 0.75 µM); in experiment [3], greater than 8 mg/L. This compound also showed an IC50 in experiment [4] of less than 0.01 µM.

For the compound `C[C@H](O)c1nccn1[C@H](CN)c1cc(-c2ccc(C#CC3(C)COC3)cc2)on1` [Compound 116, (1S)-1-{1-[(1R)-2-amino-1-(5-{4-[(3-methyloxetan-3-yl)ethynyl]phenyl}-1,2-oxazol-3-yl)ethyl]-1H-imidazol-2-yl}ethan-1-ol], the MIC in experiment [1] is 0.5 mg/L (≈ 1.27 µM); in experiment [2], 2 mg/L (≈ 5.1 µM); in experiment [3], 64 mg/L (≈ 163 µM). In addition, the half-maximal inhibitory concentration (IC50) in experiment [4] (setting [5]) was 0.0791 µM.

In the case of `C[C@H](O)c1nccn1Cc1cc(-c2ccc(C#CCNC3CC3)cc2)on1` [Compound 51, (1S)-1-{1-[(5-(4-[3-(cyclopropylamino)prop-1-yn-1-yl]phenyl}-1,2-oxazol-3-yl)methyl]-1H-imidazol-2-yl}ethan-1-ol], the results for the MIC in experiment [1], in experiment [2] and in experiment [3] were 1 mg/L (≈ 2.76 µM), 2 mg/L (≈ 5.52 µM) and greater than 32 mg/L, respectively. Besides, the IC50 in experiment [4] (setting [5]) was found to be 0.182 µM.

Consider `COCC(=O)N1C[C@@H]2[C@@H](C#Cc3ccc(-c4cc(Cn5ccnc5[C@H](C)O)no4)cc3)[C@@H]2C1` [Compound 76, 1-[(1R,5S,6s)-6-({4-[3-({2-[(1S)-1-Hydroxyethyl]-1H-imidazol-1-yl}methyl)-1,2-oxazol-5-yl]phenyl}ethynyl)-3-azabicyclo[3.1.0]hexan-3-yl]-2-methoxyethan-1-one], for which the MIC turned out to be 1 mg/L (≈ 2.24 µM) in experiment [1], 2 mg/L (≈ 4.48 µM) in experiment [2] and 32 mg/L (≈ 71.7 µM) in experiment [3]. Besides, the IC50 in experiment [4] (setting [5]) came to 0.038 µM.

On to `C[C@H](O)c1nccn1[C@H](CO)c1cc(-c2ccc(C#C[C@@H]3[C@H]4CN(CCO)C[C@@H]34)cc2)on1` [Compound 96, (2S)-2-[5-(4-{[(1R,5S,6s)-3-(2-hydroxyethyl)-3-azabicyclo[3.1.0]hexan-6-yl]ethynyl}phenyl)-1,2-oxazol-3-yl]-2-{2-[(1S)-1-hydroxyethyl]-1H-imidazol-1-yl}ethan-1-ol], for which the results for the MIC in experiment [1], in experiment [2] and in experiment [3] were 1 mg/L (≈ 2.23 µM), 2 mg/L (≈ 4.46 µM) and 4 mg/L (≈ 8.92 µM), respectively. The IC50 in experiment [4] (setting [5]) was determined as 0.259 µM.

On to `COCCN1C[C@@H]2[C@@H](C#Cc3ccc(-c4cc(Cn5ccnc5[C@H](C)O)no4)cc3)[C@@H]2C1` [Compound 34, (1S)-1-(1-{[5-(4-{[(1R,5S,6s)-3-(2-methoxyethyl)-3-azabicyclo[3.1.0]hexan-6-yl]ethynyl}phenyl)-1,2-oxazol-3-yl]methyl}-1H-imidazol-2-yl)ethan-1-ol], for which the figures for the minimum inhibitory concentration (MIC) in experiment [1], in experiment [2] and in experiment [3] were 0.25 mg/L (≈ 0.578 µM), 0.5 mg/L (≈ 1.16 µM) and 8 mg/L (≈ 18.5 µM), respectively. For the same compound, the IC50 in experiment [4] (setting [5]) is 0.108 µM.

As to `C[C@H](O)c1nccn1Cc1cc(-c2ccc(C#CC(C)(C)O)cc2)on1` [Compound 32, 4-(4-[3-({2-[(1S)-1-hydroxyethyl]-1H-imidazol-1-yl}methyl)-1,2-oxazol-5-yl]phenyl}-2-methylbut-3-yn-2-ol], the MIC in experiment [1] was 8 mg/L (≈ 22.8 µM); in experiment [2], 16 mg/L (≈ 45.5 µM); in experiment [3] it was greater than 128 mg/L. Further, the half-maximal inhibitory concentration (IC50) in experiment [4] (setting [5]) came to 0.335 µM.

Take `C[C@H](O)c1nccn1Cc1cc(-c2ccc(C#CC3CCOC3)cc2)on1` (stereo partly drawn) [Compound 49, (1S)-1-{1-[(5-{4-[(oxolan-3-yl)ethynyl]phenyl}-1,2-oxazol-3-yl)methyl]-1H-imidazol-2-yl}ethan-1-ol]: the MIC in experiment [1] is 0.5 mg/L (≈ 1.38 µM); in experiment [2], 1 mg/L (≈ 2.75 µM); in experiment [3], greater than 32 mg/L. Also, in experiment [4] (setting [5]), the IC50 was determined as 0.0296 µM.

For `C[C@H](O)c1nccn1Cc1cc(-c2ccc(C#CC3COC3)cc2)on1` [Compound 44, (1S)-1-{1-[(5-{4-[(oxetan-3-yl)ethynyl]phenyl}-1,2-oxazol-3-yl)methyl]-1H-imidazol-2-yl}ethan-1-ol], the figures for the minimum inhibitory concentration (MIC) in experiment [1], in experiment [2] and in experiment [3] were 2 mg/L (≈ 5.72 µM), 2 mg/L (≈ 5.72 µM) and 128 mg/L (≈ 366 µM), respectively. Moreover, in experiment [4] (setting [5]), the IC50 was 0.0227 µM.

Regarding `C[C@H](O)c1nccn1Cc1cc(-c2ccc(C#C[C@@H]3[C@H]4CN(CC(=O)O)C[C@@H]34)cc2)on1` [Compound 110, [(1R,5S,6s)-6-({4-[3-((2-[(1S)-1-hydroxyethyl]-1H-imidazol-1-yl}methyl)-1,2-oxazol-5-yl]phenyl}ethynyl)-3-azabicyclo[3.1.0]hexan-3-yl]acetic acid], the IC50 in experiment [4] (setting [5]) stood at 0.219 µM.

Consider `C[C@H](O)c1nccn1Cc1cc(-c2ccc(C#C[C@@H]3[C@H]4CN(CCC(=O)O)C[C@@H]34)cc2)on1` [Compound 114, 3-[(1R,5S,6s)-6-({4-[3-({2-[(1S)-1-hydroxyethyl]-1H-imidazol-1-yl}methyl)-1,2-oxazol-5-yl]phenyl}ethynyl)-3-azabicyclo[3.1.0]hexan-3-yl]propanoic acid], for which the MIC in experiment [2] and in experiment [3] was 4 mg/L (≈ 8.96 µM) throughout. Further, in experiment [4] (setting [5]), the IC50 was 0.291 µM.

Consider `C[C@H](O)c1nccn1[C@H](CN)c1cc(-c2ccc(C#CC3CCOC3)cc2)on1` (stereo partly drawn) [Compound 75, (1S)-1-{1-[(1R)-2-amino-1-(5-{4-[(oxolan-3-yl)ethynyl]phenyl}-1,2-oxazol-3-yl)ethyl]-1H-imidazol-2-yl} ethan-1-ol], for which the MIC in experiment [1] was determined as 0.25 mg/L (≈ 0.637 µM); in experiment [2], 2 mg/L (≈ 5.1 µM); in experiment [3], 64 mg/L (≈ 163 µM).

On to `C[C@H](O)c1nccn1Cc1cc(-c2ccc(C#C[C@H]3C[C@H](O)C3)cc2)on1` [Compound 54, trans-3-({4-[3-({2-[(1S)-1-Hydroxyethyl]-1H-imidazol-1-yl}methyl)-1,2-oxazol-5-yl]phenyl}ethynyl)cyclobutan-1-ol], for which the MIC in experiment [1] amounted to 0.12 mg/L (≈ 0.33 µM); in experiment [2], 0.25 mg/L (≈ 0.688 µM); in experiment [3], 16 mg/L (≈ 44 µM).

As to `C[C@H](O)CN1C[C@@H]2[C@@H](C#Cc3ccc(-c4cc([C@@H](CN)n5ccnc5[C@H](C)O)no4)cc3)[C@@H]2C1` [Compound 136, (S)-1-((1R,5S,6R)-6-((4-(3-((R)-2-amino-1-(2-((S)-1-hydroxyethyl)-1H-imidazol-1-yl)ethyl)isoxazol-5-yl)phenyl)ethynyl)-3-azabicyclo[3.1.0]hexan-3-yl)propan-2-ol], the MIC came to 1 mg/L (≈ 2.17 µM) in experiment [1], 4 mg/L (≈ 8.67 µM) in experiment [2] and 2 mg/L (≈ 4.33 µM) in experiment [3].

Turning to `C[C@H](O)c1nccn1[C@H](CN)c1cc(-c2ccc(C#CC3CC3(CO)CO)cc2)on1` (stereo partly drawn) [Compound 131, (1S)-1-(1-{(1R)-2-amino-1-[5-(4-{[2,2-bis(hydroxymethyl)cyclopropyl]ethynyl}phenyl)-1,2-oxazol-3-yl]ethyl}-1H-imidazol-2-yl)ethan-1-ol], the MIC stood at 8 mg/L (≈ 18.9 µM) in experiment [1], 32 mg/L (≈ 75.7 µM) in experiment [2] and 16 mg/L (≈ 37.9 µM) in experiment [3].

Values taken from US20220002279A1, “NOVEL IMIDAZOLE DERIVATIVE” (priority 2018, published 2022).
